Laboratory results reported in EP2812315B1, “PYRROLIC DERIVATIVES, PROCESSES FOR PREPARING THE SAME AND THEIR USES AS A DRUG” (Universite Joseph Fourier, priority 2012, dated 2013).
Values after ≈ are worked out from the molar mass of the structure shown.

Legend:
Type in all cases: cell-based
[1] = test system: Staphylococcus hominis(CHUG-Shom1); assay: Other MIC determination, microdilution method (CLSI M07-A9) with modifications; conditions: 10^6 CFU/ml, 18h at 37 °C
Procedure: (§1) The microdilution method recommended by the Clinical and Laboratory Standard Institute [M07-A9, Vol.32, N°2] was used with the following modifications.
(§2) Bacterial inocula were prepared in Mueller Hinton broth (MH2, BioMérieux, Marcy L'Etoile, France). They were dispensed in 96 well microtiter plates (10^6 CFU/ml of final inoculum, 192 µL per well).
(§3) To avoid cross-contaminations in microtiter plates, one row was left blank between each strain tested. Microplates were incubated for 18h at 37 °C in ambient air. Then MICs were read visually and, in case of visual reading difficulties, confirmed using a spectrophotometer at a wavelength of 630 nm (BioTek® EL808 Absorbance Microplate Reader). MICs corresponded to the minimum pyrrolic compound concentrations that allowed complete visual growth inhibition of bacteria. Drug-free cultures served as growth controls.
(§4) We used four Staphylococcus aureus strains. Two reference strains were provided by the French reference center for Staphylococcus spp. (Lyon, France), including one methicillin-susceptible (MSSA 476) and one methicillin-resistant (MRSA 252) S. aureus strains. The two remaining S. aureus strains were purchased from the CRBIP (Centre de Ressources Biologiques de l'Institut Pasteur): a vancomycin-intermediate strain (ATCC 106414) and a S. aureus strain (SA-1199B) resistant to fluoroquinolones due to overexpression of the NorA multidrug efflux pump. Coagulase-negative Staphylococcus strains included three reference strains purchased from CRBIP: a methicillin-susceptible S. epidermidis strain (ATCC 12228), a methicillin-resistant S. epidermidis strain (ATCC 49461), and a methicillin-susceptible S. sciuri strain (ATCC 29061). We also used 37 clinical strains belonging to the following coagulase-negative Staphylococcus species: S. arlettae (two strains), S. capitis (nine strains), S. epidermidis (one strain), S. haemolyticus (six strains), S. hominis (eight strains), S. lugdunensis (one strain), S. massiliensis (one strain), S. pettenkoferi (two strains), S. saprophyticus (two strains), S. simulans (one strain), and S. warneri (four strains) . Identification of the clinical strains was first obtained using VITEK® 2 System (Biomérieux) and confirmed by amplification and sequencing of the tuf gene (Reference: Bergeron, M., O. Dauwalder, M. Gouy, A.-M. Freydiere, M. Bes, H. Meugnier, Y. Benito, J. Etienne, G. Lina, F. Vandenesch, and S. Boisset. Species identification of staphylococci by amplification and sequencing of the tuf gene compared to the gap gene and by matrix-assisted laser desorption ionization time-of-flight mass spectrometry, Eur. J. Clin. Microbial. Infect. Dis. 2011, 30, 343-354).
(§5) The activity of pyrrolic compounds 3c, 3e-3j and 3n was first tested against 12 Staphylococcus sp. strains, including 7 reference strains and five clinical strains. The MICs of these compounds against Staphylococcus aureus ATCC 106414 (VISA) and Staphylococcus epidermidis ATCC 12228 are in accordance with those described in Tables I and II.

[2] = test system: Staphylococcus pettenkoferi (CHUG-Spet1); assay: as above; conditions: 10^6 CFU/ml, 18h at 37 °C
Procedure: as §1, §2, §3, §4, §5

[3] = test system: Staphylococcus epidermidis (ATCC 12228); assay: as above; conditions: ATCC12228, 10^6 CFU/ml, 18h at 37 °C
Procedure: as §1, §2, §3, §4, §5

[4] = test system: Staphylococcus aureus (MSSA476); assay: as above; conditions: 10^6 CFU/ml, 18h at 37 °C
Procedure: as §1, §2, §3, §4, §5

[5] = test system: Staphylococcus aureus (MRSA 252); assay: as above; conditions: 10^6 CFU/ml, 18h at 37 °C
Procedure: as §1, §2, §3, §4, §5

[6] = test system: KB (human mouth carcinoma); assay: In vitro cytotoxicity; conditions: triplicate
Procedure: (§6) In vitro cytotoxicity was assayed on three cell lines - KB (human mouth carcinoma), MCR5 (human lung fibroblast) and HCT116 (human colon tumor). Results are presented in table III as % of cellular growth inhibition in presence of 10^-5 M and 10^-6 M of the tested bis-pyrrolic derivatives in DMSO (triplicate).

MRC5 = assay: In vitro cytotoxicity; conditions: MRC5 (human lung fibroblast), triplicate
Procedure: as §6

[7] = test system: HCT116 (human colon tumor); assay: In vitro cytotoxicity; conditions: triplicate
Procedure: as §6

[8] = test system: Staphylococcus aureus MSSA 476 CNR HT 2006 0437; assay: Determination of the minimum bactericidal concentration (MBC), macro-method; conditions: 18 hours incubation, initial bacterial load 7,70E+05
Procedure: (§7) The MBC against two different strains of Staphylococcus aureus, one susceptible to methicillin (MSSA 476 CNR HT 2006 0437) and one resistant to methicillin (MRSA 252 CNR HT 2006 0436) obtained from Centre National de Reference des Staphylocoques (Lyon, France) were determined using a macro-method. Sterile tubes were filled with a primary bacterial inoculum prepared in Mueller Hinton broth as above (10^6 CFU/ml of final inoculum) and pyrrolic compounds were added at twofold serial concentrations (0.5-128 mg/L of final concentrations for 3h and 3i and 0.0625-128mg/L of final concentration for 3n). After 18 hours incubation of cultures, ten-fold serial dilutions of the cultures with no visible bacterial growth and of the first tube showing visible bacterial growth were prepared. Then 100µl of each dilution were inoculated to Mueller Hinton agar media for 24-48 hours. CFU counts were then determined and the MBC corresponded to the minimal pyrrolic compound concentration for which 99.9% of more bacterial cells were killed after 18 hours of incubation.
(§8) However, this reduction was only 1-2 log CFU/ml, and thus MBC could not be determined (tables VI and VII). Table VI: MBC against Staphylococcus aureus MRSA 252 CNR HT 2006 0436

[9] = test system: Staphylococcus aureus MRSA 252 CNR HT 2006 0436; assay: as above; conditions: 18 hours incubation, initial bacterial load 9500000
Procedure: as §7, §8

[10] = 10^-5 M in DMSO, read-out: % of cellular growth inhibition
[11] = 10^-6 M in DMSO, read-out: % of cellular growth inhibition (converted)

CC(=O)c1c(C)[nH]c(C(c2[nH]c(C)c(C(C)=O)c2C)c2csc3ccccc23)c1C [3i]
MIC [1]: > 32 µg/mL
MIC [2]: > 32 µg/mL
MIC [3]: > 32 µg/mL
MIC [4]: 0.5 µg/mL (≈ 1.19 µM)
MIC [5]: 1 µg/mL (≈ 2.39 µM)
inhibition at 10 µM [6, 10]: 95 ± 1%
inhibition at 1 µM [6, 11]: 0%
inhibition at 10 µM (MRC5; [10]): 84 ± 1%
inhibition at 1 µM (MRC5; [11]): 0%
inhibition at 10 µM ([7]; HCT-116, 10^-5 M in DMSO, read-out: % of cellular growth inhibition): 50 ± 1%
inhibition at 1 µM ([7]; HCT-116, 10^-6 M in DMSO, read-out: % of cellular growth inhibition (converted)): 10%
CFU counts (bacterial load) ([8]; concentration 0,5 mg/L): 1,46E+08 CFU/ml
CFU counts (bacterial load) ([8]; concentration 1 mg/L): 6,00E+07 CFU/ml
CFU counts (bacterial load) ([8]; concentration 2 mg/L): 3,55E+06 CFU/ml
CFU counts (bacterial load) ([8]; concentration 4 mg/L): 2,72E+05 CFU/ml
CFU counts (bacterial load) ([8]; concentration 8 mg/L): 3,01E+05 CFU/ml
CFU counts (bacterial load) ([8]; concentration 16 mg/L): 3,51E+05 CFU/ml
CFU counts (bacterial load) ([8]; concentration 32 mg/L): 3,41E+05 CFU/ml
CFU counts (bacterial load) ([8]; concentration 64 mg/L): 3,21 E+05 CFU/ml
CFU counts (bacterial load) ([8]; concentration 128 mg/L): 1,47E+06 CFU/ml
CFU counts (bacterial load) ([9]; concentration 0,5 mg/L): 4,70E+07 CFU/ml
CFU counts (bacterial load) ([9]; concentration 1 mg/L): 5,20E+05 CFU/ml
CFU counts (bacterial load) ([9]; concentration 2 mg/L): 2,40E+05 CFU/ml
CFU counts (bacterial load) ([9]; concentration 4 mg/L): 5,60E+05 CFU/ml
CFU counts (bacterial load) ([9]; concentration 8 mg/L): 2,80E+05 CFU/ml
CFU counts (bacterial load) ([9]; concentration 16 mg/L): 2,80E+05 CFU/ml
CFU counts (bacterial load) ([9]; concentration 32 mg/L): 5,00E+05 CFU/ml
CFU counts (bacterial load) ([9]; concentration 64 mg/L): 4,80E+05 CFU/ml
CFU counts (bacterial load) ([9]; concentration 128 mg/L): 1,00E+06 CFU/ml
